Laboratory results as given in patent US12534456B2, “Heterocyclyl pyridines as novel fungicides” (Bayer Aktiengesellschaft, priority 2020, dated 2026).

Test system: Alternaria alternata
Test: Alternaria alternata in vitro cell test
Type: cell-based
Conditions: 120 h, 20 ppm of active ingredient, liquid culture with spores, 5 days incubation, spectrometric measurement of mycelium growth, read-out: efficacy (inhibition of fungal growth)
Protocol: (§1) B-5. Alternaria alternata In Vitro Cell Test • Solvent: DMSO • Culture medium: 14.6 g anhydrous D-glucose (VWR), 7.1 g Mycological Peptone (Oxoid), 1.4 g granulated Yeast Extract (Merck), QSP 1 liter • Inoculum: spores suspension • Fungicides were solubilized in DMSO and the solution used to prepare the required range of concentrations. […] A spore suspension of A. alternata was prepared and diluted to the desired spore density. Fungicides were evaluated for their ability to inhibit spore germination and mycelium growth in liquid culture assay. The compounds were added in the desired concentration to the culture medium with spores. After 5 days incubation, fungi-toxicity of compounds was determined by spectrometric measurement of mycelium growth. Inhibition of fungal growth was determined by comparing the absorbance values in wells containing the fungicides with the absorbance in control wells without fungicides.

Structure (SMILES)	inhibition at 20 ppm
Cc1ccc(CC2CON=C(c3cc(N4CCCC4)ncc3Oc3cccc(C(F)(F)F)c3)N2)cc1 (racemic) [Compound I-056, (5RS)-5-(4-methylbenzyl)-3-{2-(pyrrolidin-1-yl)-5-[3-(trifluoromethyl)phenoxy]pyridin-4-yl}-5,6-dihydro-4H-1,2,4-oxadiazine]	90 to 100%
Cc1ccc(CC2CCN=C(c3cc(Cl)ncc3Oc3cccc(C(F)(F)F)c3)N2)c(C)c1 (racemic) [Compound I-088, rac-(6R)-2-[2-chloro-5-[3-(trifluoromethyl)phenoxy]-4-pyridyl]-6-[(2,4-dimethylphenyl)methyl]-1,4,5,6-tetrahydropyrimidine]	80 to 89%
Cc1ccc(CC2CC(=O)N=C(c3cc(Cl)ncc3Oc3cccc(C(F)(F)F)c3)N2)c(C)c1 (racemic) [Compound I-098, rac-(6R)-2-[2-chloro-5-[3-(trifluoromethyl)phenoxy]-4-pyridyl]-6-[(2,4-dimethylphenyl)methyl]-5,6-dihydro-1H-pyrimidin-4-one]	80 to 89%

Test system: Colletotrichum lindemuthianum
Test: Colletotrichum lindemuthianum in vitro cell test
Type: cell-based
Conditions: 144 h, 20 ppm of active ingredient, liquid culture with spores, 6 days incubation, spectrometric measurement of mycelium growth, read-out: efficacy (inhibition of fungal growth)
Protocol: as §1, with “B-7. Colletotrichum lindemuthianum In” for “B-5. Alternaria alternata In”, “of C. lindemuthianum” for “of A. alternata”, “inhibit spores” for “inhibit spore”, “After 6” for “After 5”

Structure (SMILES)	inhibition at 20 ppm
Cc1ccc(CC2CON=C(c3cc(N4CCCC4)ncc3Oc3cccc(C(F)(F)F)c3)N2)cc1 (racemic) [Compound I-056, (5RS)-5-(4-methylbenzyl)-3-{2-(pyrrolidin-1-yl)-5-[3-(trifluoromethyl)phenoxy]pyridin-4-yl}-5,6-dihydro-4H-1,2,4-oxadiazine]	90 to 100%
Cc1ccc(CC2CCN=C(c3cc(Cl)ncc3Oc3cccc(C(F)(F)F)c3)N2)c(C)c1 (racemic) [Compound I-088, rac-(6R)-2-[2-chloro-5-[3-(trifluoromethyl)phenoxy]-4-pyridyl]-6-[(2,4-dimethylphenyl)methyl]-1,4,5,6-tetrahydropyrimidine]	70 to 79%
Cc1ccc(CC2CC(=O)N=C(c3cc(Cl)ncc3Oc3cccc(C(F)(F)F)c3)N2)c(C)c1 (racemic) [Compound I-098, rac-(6R)-2-[2-chloro-5-[3-(trifluoromethyl)phenoxy]-4-pyridyl]-6-[(2,4-dimethylphenyl)methyl]-5,6-dihydro-1H-pyrimidin-4-one]	90 to 100%

Test system: Pyricularia oryzae
Test: microbe, parasite or virus in culture
Type: cell-based
Conditions: 120 h, read-out: efficacy (inhibition of fungal growth)

Structure (SMILES)	inhibition at 20 ppm
Cc1ccc(CC2CON=C(c3cc(N4CCCC4)ncc3Oc3cccc(C(F)(F)F)c3)N2)cc1 (racemic) [Compound I-056, (5RS)-5-(4-methylbenzyl)-3-{2-(pyrrolidin-1-yl)-5-[3-(trifluoromethyl)phenoxy]pyridin-4-yl}-5,6-dihydro-4H-1,2,4-oxadiazine]	80 to 89%

Test system: not listed separately
Test: physchem
Type: physicochemical
Conditions: not given
Protocol: Measurement of Log P values as provided herein was performed according to EEC directive 79/831 Annex V.A8 by HPLC (High Performance Liquid Chromatography) on reversed phase columns with the following methods: • ^[a]
If more than one Log P value is available within the same method, all the values are given and separated by “+”.
Lambda-max-values were determined using UV-spectra from 200 nm to 400 nm and the peak values of the chromatographic signals

Structure (SMILES)	LogP
CSc1cccc(Oc2cnc(Cl)cc2C2=NOCC(Cc3ccc(C)cc3C)N2)c1 (racemic) [Compound I-064]	4.66^[a]
NOCC(Cc1ccc(Br)cc1Cl)NC(=O)c1cc(Cl)ncc1Oc1cccc(C(F)F)c1 (centres unmarked) [4-10]	3.46^[a]
Clc1ccc(CC2CON=C(c3cc(Cl)ncc3Br)N2)c(Cl)c1 (centres unmarked) [7-04]	3.45^[a]
O=C(O)c1cc(Cl)ncc1Oc1cccc(C(F)F)c1 [Compound 1-10]	2.48^[a]
Cc1ccc(C(CCl)NC(=O)c2cc(Cl)ncc2Oc2cccc(C(F)(F)F)c2)cc1 (centres unmarked) [14-12]	4.49^[a]
Cc1ccc(CC2CON=C(c3cc(Cl)ncc3Oc3cccc(C4CC4)c3F)N2)c(C)c1 (single isomer, unassigned) [Compound I-021]	4.93^[a]
FC(F)(F)c1cccc(Oc2cnc(Cl)cc2C2=NOCC(c3ccc4c(c3)CCC4)N2)c1 (racemic) [Compound I-054]	4.41^[a]
COc1cccc(Oc2cnc(Cl)cc2C(=O)O)c1 [Compound 1-09]	2.34^[a]
Cc1ccc(CC(CCl)NC(=NO)c2cc(Cl)ncc2Oc2cccc(C(F)(F)F)c2)cc1 (centres unmarked) [16-04]	4.59^[a]
COc1cccc(Oc2cnc(Cl)cc2C2=NOCC(Cc3ccc(Br)cc3Cl)N2)c1 (racemic) [Compound I-006]	4.37^[a]
Cc1ccc(Cl)c(CC2CON=C(c3cc(Cl)ncc3Oc3cccc(Cl)c3F)N2)c1 (racemic) [Compound I-118]	4.52^[a]
Cc1ccc(CC2CON=C(c3cc(C)ncc3Oc3cccc(C(F)F)c3)N2)c(C)c1 (racemic) [Compound I-010]	3.41^[a]
Cc1ccc(CC(CCl)NC(=NO)c2cc(Cl)nc(Cl)c2Oc2cccc(C(F)(F)F)c2)c(C)c1 (centres unmarked) [16-07]	5.35^[a]
Cc1ccc(C2CCON=C(c3cc(Cl)ncc3Oc3cccc(C(F)(F)F)c3)N2)cc1 (centres unmarked) [Compound I-146]	2.06^[a]
O=C(NC(CON1C(=O)c2ccccc2C1=O)Cc1ccc(Br)cc1Cl)c1cc(Cl)ncc1Oc1cccc(C(F)F)c1 (centres unmarked) [3-10]	5.00^[a]
Clc1cc(C2=NOCC(Cc3ccc(Br)cc3Cl)N2)c(Oc2cccc(C3CC3)c2)cn1 (racemic) [Compound I-026]	5.16^[a]
C=Cc1cccc(Oc2cnc(Cl)cc2C2=NOCC(Cc3ccc(Cl)cc3Cl)N2)c1 (racemic) [Compound I-099]	4.85^[a]
C#Cc1cccc(Oc2cnc(Cl)cc2C2=NOCC(Cc3ccc(C)cc3C)N2)c1 (racemic) [Compound I-075]	4.33^[a]
Cc1cccc(CC(CCl)NC(=O)c2cc(Cl)ncc2Br)c1Cl (centres unmarked) [17-05]	3.97 ^[a]
C=CC(C)Nc1c(Cl)ncc(Oc2cccc(C(F)(F)F)c2)c1C1=NOCC(Cc2ccc(C)cc2C)N1 (centres unmarked) [Compound I-131]	5.19^[a]
CC1ON=C(c2cc(Cl)ncc2Oc2cccc(C(F)(F)F)c2)NC1c1ccc(Cl)cc1 (mixture of isomers) [Compound I-042]	4.19^[a]

Structure (SMILES)	LogP
FC(F)(F)c1cccc(Oc2cnc(Cl)cc2C2=NOCC(Cc3ccc(Cl)cc3Cl)N2)n1 (racemic) [Compound I-128]	4.44^[a]
Cc1ccc(CC2CON=C(c3cc(Cl)ncc3Oc3cccc(C)c3F)N2)c(C)c1 (racemic) [Compound I-032]	4.59^[a]
OC1CON=C(c2cc(Cl)ncc2Oc2cccc(C(F)(F)F)c2)N1 (centres unmarked) [Compound 32-01]	2.11^[a]
Cc1ccc(CC2CON=C(c3cc(Cl)ncc3Oc3ccc(C)c(Cl)c3)N2)c(C)c1 (racemic) [Compound I-076]	4.97^[a]
Cc1ccc(CC2CON=C(c3cc(Cl)ncc3Oc3cccc(OC(F)F)c3F)N2)c(C)c1 (racemic) [Compound I-035]	4.23^[a]
Cc1ccc(CC(CON2C(=O)c3ccccc3C2=O)NC(=O)c2cc(Cl)ncc2Br)c(C)c1 (centres unmarked) [Compound 6-02]	4.13^[a]
COC(=O)Cc1cccc(Oc2cnc(Cl)cc2C2=NOCC(Cc3ccc(C)cc3C)N2)c1 (racemic) [Compound I-078]	4.08^[a]
Cc1ccc(CC2CON=C(c3cc(C#N)ncc3Oc3cccc(C(F)(F)F)c3)N2)cc1 (racemic) [Compound I-057]	4.12^[a]
C#Cc1ccc(CC2CON=C(c3cc(Cl)ncc3Oc3cccc(C(F)(F)F)c3)N2)c(C)c1 (centres unmarked) [Compound I-156]	4.08^[a]
Cc1cccc(Oc2cnc(C)cc2C2=NOCC(Cc3ccc(C)cc3C)N2)c1 (racemic) [Compound I-008]	3.61^[a]
Cc1ccc(CC2CON=C(c3cc(Cl)ncc3Oc3cccc(Br)c3F)N2)c(Cl)c1 (racemic) [Compound I-079]	4.70^[a]
COCCOc1c(Cl)ncc(Oc2cccc(C(F)(F)F)c2)c1C1=NOCC(Cc2ccc(C)cc2C)N1 (racemic) [Compound I-129]	4.51^[a]
Oc1cc(C2=NOCC(Cc3ccc(Br)cc3Cl)N2)c(Oc2cccc(C(F)F)c2)cn1 (centres unmarked) [Compound I-137]	4.56^[a]
O=C(O)c1cc(Cl)ncc1Oc1cccc(Cl)c1 [Compound 1-11]	2.76^[a]
COc1cccc(Oc2cnc(Cl)cc2C2=NOCC(Cc3ccc(C)cc3C)N2)c1F (centres unmarked) [Compound I-147]	4.06^[a]
ON=C(NC(CCl)Cc1csc(C(F)(F)F)c1)c1cc(Cl)ncc1Oc1cccc(C(F)(F)F)c1 (centres unmarked) [16-10]	4.59^[a]
Cc1ccc(CC2CON=C(c3cc(Cl)ncc3Oc3cccc(Cl)c3F)N2)c(Cl)c1 (racemic) [Compound I-087]	4.66^[a]
Cc1ccc(CC(CON2C(=O)c3ccccc3C2=O)NC(=O)OC(C)(C)C)c(Cl)c1 (centres unmarked) [Compound 2-05]	4.41^[a]
FC(F)(F)c1cc(Oc2cnc(Cl)cc2C2=NOCC(Cc3ccc(Cl)cc3Cl)N2)cs1 (racemic) [Compound I-072]	4.75^[a]
NOCC(Cc1ccc(Cl)cc1Cl)NC(=O)c1cc(Cl)ncc1Oc1cccc(C2CC2)c1 (centres unmarked) [4-03]	4.06^[a]

Same assay, conditions: Table 1, compounds of formula (I); method [a]: LC-UV, acidic range, 0.1% formic acid in water and acetonitrile

Structure (SMILES)	chromatographic logP
Cc1ccc(CC2CON=C(c3cc(N4CCCC4)ncc3Oc3cccc(C(F)(F)F)c3)N2)cc1 (racemic) [Compound I-056, (5RS)-5-(4-methylbenzyl)-3-{2-(pyrrolidin-1-yl)-5-[3-(trifluoromethyl)phenoxy]pyridin-4-yl}-5,6-dihydro-4H-1,2,4-oxadiazine]	3.5
Cc1ccc(CC2CCN=C(c3cc(Cl)ncc3Oc3cccc(C(F)(F)F)c3)N2)c(C)c1 (racemic) [Compound I-088, rac-(6R)-2-[2-chloro-5-[3-(trifluoromethyl)phenoxy]-4-pyridyl]-6-[(2,4-dimethylphenyl)methyl]-1,4,5,6-tetrahydropyrimidine]	2.62
Cc1ccc(CC2CC(=O)N=C(c3cc(Cl)ncc3Oc3cccc(C(F)(F)F)c3)N2)c(C)c1 (racemic) [Compound I-098, rac-(6R)-2-[2-chloro-5-[3-(trifluoromethyl)phenoxy]-4-pyridyl]-6-[(2,4-dimethylphenyl)methyl]-5,6-dihydro-1H-pyrimidin-4-one]	4.62

Same assay, conditions: Table 3, compounds of formula (1); method [a]: LC-UV, acidic range, 0.1% formic acid in water and acetonitrile

Structure (SMILES)	chromatographic logP
O=C(O)c1cc(Cl)ncc1Oc1cccc(C(F)(F)F)c1 [Compound 1-13, 2-chloro-5-[3-(trifluoromethyl)phenoxy]isonicotinic acid]	2.84

Same assay, conditions: Table 11, compounds of formula (6); method [a]: LC-UV, acidic range, 0.1% formic acid in water and acetonitrile

Structure (SMILES)	chromatographic logP
Cc1ccc(CC(CON)NC(=O)c2cc(C(F)(F)F)ncc2Br)c(C)c1 (racemic) [Compound 6-03, N-[(2RS)-1-(aminooxy)-3-(2,4-dimethylphenyl)propan-2-yl]-5-bromo-2-(trifluoromethyl)isonicotinamide]	2.51
